Measurements as given in EP3741750A1, “4-(1H-1,2,3-TRIAZOL-1-YL)PYRROLIDINE-2-CARBOXYLIC ACID DERIVATIVES HAVING ACTIVITY AGAINST PAIN” (ESTEVE PHARMACEUTICALS, S.A., priority 2019, dated 2020).

Biological target: Human α2δ-1 subunit of Cav2.2 calcium channel (Homo sapiens, UniProt P54289)
Assay: Human α2δ-1 subunit of Cav2.2 calcium channel assay ([3H]-Gabapentin radioligand binding)
Settings: Human α2δ-1 enriched membranes, 15 nM [3H]-Gabapentin, 60 min at 27 °C
Experimental: Human α2δ-1 subunit of Cav2.2 calcium channel assay
Human α2δ-1 enriched membranes (2.5 µg) were incubated with 15 nM of radiolabeled [3H]-Gabapentin in assay buffer containing Hepes-KOH 10mM, pH 7.4. NSB (non specific binding) was measured by adding 10 µM pregabalin. The binding of the tested compound was measured at either one concentration (% inhibition at 1 or 10 µM) or five different concentrations to determine affinity values (Ki). After 60 min incubation at 27 °C, binding reaction was terminated by filtering through Multiscreen GF/C (Millipore) presoaked in 0.5 % polyethyleneimine in Vacuum Manifold Station, followed by 3 washes with ice-cold filtration buffer containing 50 mM Tris-HCI, pH 7.4. Filter plates were dried at 60 °C for 1 h and 30 µL of scintillation cocktail were added to each well before radioactivity reading. Readings were performed in a Trilux 1450 Microbeta radioactive counter (Perkin Elmer).

Sequence of Human α2δ-1 subunit of Cav2.2 calcium channel (P54289 25-1103): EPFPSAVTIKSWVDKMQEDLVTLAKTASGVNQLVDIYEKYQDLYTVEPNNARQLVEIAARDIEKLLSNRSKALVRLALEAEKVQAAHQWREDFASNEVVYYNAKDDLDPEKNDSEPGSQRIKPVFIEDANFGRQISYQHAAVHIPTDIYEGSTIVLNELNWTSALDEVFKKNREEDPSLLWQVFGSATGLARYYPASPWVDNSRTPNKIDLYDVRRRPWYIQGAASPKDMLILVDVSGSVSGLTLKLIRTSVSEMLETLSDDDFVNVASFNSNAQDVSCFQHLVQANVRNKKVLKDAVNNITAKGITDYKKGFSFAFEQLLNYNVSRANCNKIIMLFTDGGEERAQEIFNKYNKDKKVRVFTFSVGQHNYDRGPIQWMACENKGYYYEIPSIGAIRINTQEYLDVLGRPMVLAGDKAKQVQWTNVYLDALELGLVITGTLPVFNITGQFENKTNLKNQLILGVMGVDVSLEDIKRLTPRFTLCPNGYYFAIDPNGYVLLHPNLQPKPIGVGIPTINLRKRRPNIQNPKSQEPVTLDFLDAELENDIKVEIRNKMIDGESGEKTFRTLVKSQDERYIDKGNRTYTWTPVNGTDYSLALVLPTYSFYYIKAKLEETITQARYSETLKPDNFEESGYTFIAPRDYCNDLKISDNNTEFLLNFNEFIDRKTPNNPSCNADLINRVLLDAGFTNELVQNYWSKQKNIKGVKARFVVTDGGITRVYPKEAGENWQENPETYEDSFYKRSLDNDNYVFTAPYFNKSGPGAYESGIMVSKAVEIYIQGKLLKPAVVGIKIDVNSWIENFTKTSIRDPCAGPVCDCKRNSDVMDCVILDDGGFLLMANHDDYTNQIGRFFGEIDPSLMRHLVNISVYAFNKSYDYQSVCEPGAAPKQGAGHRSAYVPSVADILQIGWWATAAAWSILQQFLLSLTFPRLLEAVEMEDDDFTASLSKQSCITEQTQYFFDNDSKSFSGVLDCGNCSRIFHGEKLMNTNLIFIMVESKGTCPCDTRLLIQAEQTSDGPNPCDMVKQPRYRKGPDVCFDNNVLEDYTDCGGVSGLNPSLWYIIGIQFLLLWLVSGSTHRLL

Molecule | Ki [µM]
O=C(O)[C@@H]1C[C@H](n2cc(-c3ccccc3Cl)nn2)CN1 [Example 12, (2S,4S)-4-(4-(2-chlorophenyl)-1 H-1,2,3-triazol-1-yl)pyrrolidine-2-carboxylic acid] | 0.5 to 5
O=C(O)[C@@H]1C[C@H](n2cc(Cc3ccccc3)nn2)CN1 [Example 16, (2S,4S)-4-(4-benzyl-1H-1,2,3-triazol-1-yl)pyrrolidine-2-carboxylic acid] | ≥ 5
N#Cc1ccc(-c2cn([C@@H]3CN[C@H](C(=O)O)C3)nn2)cc1 [Example 22, (2S,4S)-4-(4-(4-cyanophenyl)-1H-1,2,3-triazol-1-yl)pyrrolidine-2-carboxylic acid] | ≥ 5
O=C(O)[C@@H]1C[C@H](n2cc(-c3ccc(F)c(F)c3)nn2)CN1 [Example 10, (2S,4S)-4-(4-(3,4-difluorophenyl)-1H-1,2,3-triazol-1-yl)pyrrolidine-2-carboxylic acid] | < 0.5
O=C(O)[C@@H]1C[C@H](n2cc(-c3cc(F)cc(F)c3)nn2)CN1 [Example 15, (2S,4S)-4-(4-(3,5-difluorophenyl)-1H-1,2,3-triazol-1-yl)pyrrolidine-2-carboxylic acid] | ≥ 5
O=C(O)[C@@H]1C[C@H](n2cc(-c3ccc(Br)cc3)nn2)CN1 [Example 17, (2S,4S)-4-(4-(4-bromophenyl)-1 H-1,2,3-triazol-1-yl)pyrrolidine-2-carboxylic acid] | 0.5 to 5
(2S,4S)-4-(4-(4-fluorophenyl)-1 H-1,2,3-triazol-1-yl)pyrrolidine-2-carboxylic acid [Example 5] | 0.5 to 5
O=C(O)[C@@H]1C[C@H](n2cc(Cc3cccc(Cl)c3)nn2)CN1 [Example 23, (2S,4S)-4-(4-(3-chlorobenzyl)-1 H-1,2,3-triazol-1-yl)pyrrolidine-2-carboxylic acid] | ≥ 5
Cc1cccc(-c2cn([C@@H]3CN[C@H](C(=O)O)C3)nn2)c1 [Example 8, (2S,4S)-4-(4-(m-tolyl)-1H-1,2,3-triazol-1-yl)pyrrolidine-2-carboxylic acid] | ≥ 5
CNCc1cc(F)cc(-c2cn([C@@H]3CN[C@H](C(=O)O)C3)nn2)c1 [Example 26, (2S,4S)-4-(4-(3-fluoro-5-((methylamino)methyl)phenyl)-1H-1,2,3-triazol-1-yl)pyrrolidine-2-carboxylic acid] | ≥ 5
O=C(O)[C@@H]1C[C@H](n2cc(-c3ccncc3)nn2)CN1 [Example 19, (2S,4S)-4-(4-(pyridin-4-yl)-1H-1,2,3-triazol-1-yl)pyrrolidine-2-carboxylic acid] | ≥ 5
CN(C)Cc1cc(F)cc(-c2cn([C@@H]3CN[C@H](C(=O)O)C3)nn2)c1 [Example 25, (2S,4S)-4-(4-(3-((dimethylamino)methyl)-5-fluorophenyl)-1 H-1,2,3-triazol-1-yl)pyrrolidine-2-carboxylic acid] | ≥ 5
COc1cccc(-c2cn([C@@H]3CN[C@H](C(=O)O)C3)nn2)c1 [Example 4, (2S,4S)-4-(4-(3-methoxyphenyl)-1H-1,2,3-triazol-1-yl)pyrrolidine-2-carboxylic acid] | ≥ 5
O=C(O)[C@@H]1C[C@H](n2cc(-c3ccccn3)nn2)CN1 [Example 9, (2S,4S)-4-(4-(pyridin-2-yl)-1H-1,2,3-triazol-1-yl)pyrrolidine-2-carboxylic acid] | 0.5 to 5
O=C(O)[C@@H]1C[C@H](n2cc(-c3ccc(Cl)c(Cl)c3)nn2)CN1 [Example 14, (2S,4S)-4-(4-(3,4-dichlorophenyl)-1H-1,2,3-triazol-1-yl)pyrrolidine-2-carboxylic acid] | 0.5 to 5
O=C(O)[C@@H]1C[C@H](n2cc(-c3cccc(F)c3)nn2)CN1 [Example 1, (2S,4S)-4-(4-(3-Fluorophenyl)-1H-1,2,3-triazol-1-yl)pyrrolidine-2-carboxylic acid] | < 0.5
O=C(O)[C@@H]1C[C@H](n2cc(-c3cc(Cl)cc(Cl)c3)nn2)CN1 [Example 27, (2S,4S)-4-(4-(3,5-dichlorophenyl)-1H-1,2,3-triazol-1-yl)pyrrolidine-2-carboxylic acid] | ≥ 5
O=C(O)[C@@H]1C[C@H](n2cc(-c3ccccc3)nn2)CN1 [Example 7, (2S,4S)-4-(4-phenyl-1H-1,2,3-triazol-1-yl)pyrrolidine-2-carboxylic acid] | 0.5 to 5
O=C(O)[C@@H]1C[C@H](n2cc(Cc3ccc(Cl)cc3)nn2)CN1 [Example 30, (2S,4S)-4-(4-(4-chlorobenzyl)-1 H-1,2,3-triazol-1-yl)pyrrolidine-2-carboxylic acid] | ≥ 5
COc1ccc(-c2cn([C@@H]3CN[C@H](C(=O)O)C3)nn2)cc1 [Example 6, (2S,4S)-4-(4-(4-methoxyphenyl)-1H-1,2,3-triazol-1-yl)pyrrolidine-2-carboxylic acid] | ≥ 5
N#Cc1cccc(-c2cn([C@@H]3CN[C@H](C(=O)O)C3)nn2)c1 [Example 21, (2S,4S)-4-(4-(3-cyanophenyl)-1H-1,2,3-triazol-1-yl)pyrrolidine-2-carboxylic acid] | ≥ 5
O=C(O)[C@@H]1C[C@H](n2cc(-c3cncc(Cl)c3)nn2)CN1 [Example 20, (2S,4S)-4-(4-(5-chloropyridin-3-yl)-1H-1,2,3-triazol-1-yl)pyrrolidine-2-carboxylic acid] | ≥ 5
(2S,4S)-4-(4-(3-((benzylamino)methyl)-5-fluorophenyl)-1H-1,2,3-triazol-1-yl)pyrrolidine-2-carboxylic acid [Example 29] | ≥ 5
CN(Cc1ccccc1)Cc1cc(F)cc(-c2cn([C@@H]3CN[C@H](C(=O)O)C3)nn2)c1 [Example 28, (2S,4S)-4-(4-(3-((benzyl(methyl)amino)methyl)-5-fluorophenyl)-1H-1,2,3-triazol-1-yl)pyrrolidine-2-carboxylic acid] | ≥ 5
O=C(O)[C@@H]1C[C@H](n2cc(-c3ccc(Cl)cc3Cl)nn2)CN1 [Example 13, (2S,4S)-4-(4-(2,4-dichlorophenyl)-1H-1,2,3-triazol-1-yl)pyrrolidine-2-carboxylic acid] | ≥ 5
O=C(O)[C@@H]1C[C@H](n2cc(-c3cccc(Cl)c3)nn2)CN1 [Example 2, (2S,4S)-4-(4-(3-chlorophenyl)-1H-1,2,3-triazol-1-yl)pyrrolidine-2-carboxylic acid] | < 0.5
COc1ccccc1-c1cn([C@@H]2CN[C@H](C(=O)O)C2)nn1 [Example 3, (2S,4S)-4-(4-(2-methoxyphenyl)-1H-1,2,3-triazol-1-yl)pyrrolidine-2-carboxylic acid] | ≥ 5
COc1ccc(-c2cn([C@@H]3CN[C@H](C(=O)O)C3)nn2)c(Cl)c1 [Example 11, (2S,4S)-4-(4-(2-chloro-4-methoxyphenyl)-1H-1,2,3-triazol-1-yl)pyrrolidine-2-carboxylic acid] | ≥ 5
O=C(O)[C@@H]1C[C@H](n2cc(-c3cccnc3)nn2)CN1 [Example 18, (2S,4S)-4-(4-(pyridin-3-yl)-1H-1,2,3-triazol-1-yl)pyrrolidine-2-carboxylic acid] | ≥ 5
O=C(O)[C@@H]1C[C@H](n2cc(-c3cccc(Br)c3)nn2)CN1 [Example 24, (2S,4S)-4-(4-(3-bromophenyl)-1 H-1,2,3-triazol-1-yl)pyrrolidine-2-carboxylic acid] | 0.5 to 5
